# Patent EP0839146B1, “PIPERAZINE DERIVATIVES AND THEIR USE AS 5-HT1A ANTAGONISTS” (AMERICAN HOME PRODUCTS CORPORATION, priority 1995, dated 1997)
# Columns and labels:
# α1 receptors = assay: α1 binding affinity (procedure of Marrow et al)
# Experimental: The compounds were tested for α1 binding affinity (column 3) by the procedure of A.L. Marrow et al, Mol. Pharmacol., 1986, 29, 321.
# 5-HT1A receptor [1] = target: T1, 5-HT1A receptor (Rattus norvegicus, UniProt P19327); assay: 5-HT1A receptor antagonist activity: antagonism of the 8-OH-DPAT syndrome in rats after oral pretreatment; assay type: in vivo; parameters: from tissue; host or cells: whole animal (rat), in vivo
# T1 sequence (P19327 1-422): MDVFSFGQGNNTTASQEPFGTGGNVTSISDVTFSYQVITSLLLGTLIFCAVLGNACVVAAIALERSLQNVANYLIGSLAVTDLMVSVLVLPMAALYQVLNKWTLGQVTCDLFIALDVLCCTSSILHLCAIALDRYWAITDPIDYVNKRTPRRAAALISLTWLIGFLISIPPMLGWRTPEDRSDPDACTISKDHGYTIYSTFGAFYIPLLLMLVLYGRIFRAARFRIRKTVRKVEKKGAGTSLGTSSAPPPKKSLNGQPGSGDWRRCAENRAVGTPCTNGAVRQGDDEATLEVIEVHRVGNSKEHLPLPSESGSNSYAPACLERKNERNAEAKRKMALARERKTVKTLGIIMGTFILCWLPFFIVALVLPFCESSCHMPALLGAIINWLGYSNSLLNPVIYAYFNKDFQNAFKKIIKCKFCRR
# Experimental: 5-HT1A receptor antagonist activity (columns 5 and 6) is assessed by the ability of the selective 5-HT1A receptor agonist, 8-OH-DPAT, to induce 'the 8-OH-DPAT syndrome' in rats characterised by extended flat body posture, forepaw treading and hyperlocomotion. The 8-OH-DPAT syndrome is scored as present (definite syndrome response) or absent (equivocal or no syndrome response) during the period 0-5 min following intravenous (i.v.) administration of the test agonist via a lateral tail vein.
# A range of doses, on a logarithmic scale and encompassing the expected ED50, were chosen for the test agonist following preliminary evaluation. […]
# Test antagonists were administered orally (p.o.) 60 min, before i.v. administration of 8-OH-DPAT. ED50 values for 8-OH-DPAT were determined for the different pretreatment groups using the sequential up/down procedure as described above.
# The response to the selective 5-HT1A receptor agonist, 8-OH-DPAT, is represented as an ED50 value for induction of the 8-OH-DPAT syndrome, which is determined using the sequential up/down analysis following intravenous administration. 5-HT1A antagonist activity is determined by the ability of the test compound to antagonise the response to 8-OH-DPAT, i.e. to increase the ED50 for induction of the 8-OH-DPAT syndrome compared with vehicle pretreatment. […]
# 5-HT1A receptor [2] = target: T1, 5-HT1A receptor; assay: 5-HT1A binding affinity in rat hippocampal membrane homogenate (method of Alexander and Wood); parameters: in rat hippocampal membrane homogenate; from tissue; host or cells: rat hippocampus (membrane homogenate)
# Experimental: The compounds were tested for 5-HT1A binding affinity (column 2) in rat hippocampal membrane homogenate by the method of B.S. Alexander and M.D. Wood, J. Pharm. Pharmacol., 1988, 40, 888-891.
structure (smiles),measurement,setting,value
C[C@H](CN(C(=O)C1CCCCC1)c1ccccn1)N1CCN(c2cccc3c2OCCO3)CC1 [Example A1],IC50,α1 receptors,625 nM
same,5-HT1A-antagonist Ratio (ED50 antagonist @ 3mg/kg po)/ED50 vehicle,5-HT1A receptor [1]; ED50 of i.v. 8-OH-DPAT after test compound 3 mg/kg p.o. divided by ED50 after vehicle,20
same,5-HT1A-antagonist activity MED,"5-HT1A receptor [1]; antagonist p.o. 60 min before i.v. 8-OH-DPAT, lowest dose at which ED50 confidence limits of antagonist and vehicle groups do not overlap",1 mg/kg po
same,Ratio 5HT1A/α1,"5-HT1A receptor [2]; binding selectivity, ratio of 5-HT1A binding to α1-binding",145
same,IC50,5-HT1A receptor [2]; rat hippocampal membrane homogenate,4.3 nM
